Data on eight molecules can be found in PMC9899896, “Application of a new approach methodology (NAM)-based strategy for genotoxicity assessment of data-poor compounds” (Frontiers in Toxicology, 2023).

Series [1] relates to human lymphoblastoid TK6 cells. Briefly: Viability assessment (propidium iodide fluorescence, flow cytometry). Particulars: TK6 cells, ± S9, quantified at 24 h via propidium iodide. On the technique in general: A flow cytometer gives signals particle by particle.
The subject of series [2] is human lymphoblastoid TK6 cells. Briefly: TGx-DDI transcriptomic biomarker classification (TempO-Seq S1500+) and BMC modeling. Particulars: for TGx-DDI summary classification: TK6 cells, 4H exposure; for TGx-DDI classification: overall call from 2-DC, PCA, NSC-PA, S9 condition as in Figure 1; for TGx-DDI BMC potency ranking (bootstrapped median gene BMC): BMR 1 standard deviation, compounds with concordant positive calls; for Strength / consistency of TGx-DDI response (text): across concentrations and the three statistical analyses.

The test system of series [3] is human lymphoblastoid TK6 cells. The series can be described thus: MultiFlow DNA Damage assay (γH2AX, p53, p-H3, polyploidy). Format: cell-based. Particulars: for MultiFlow summary classification (call and MoA): TK6 cells, 4H and 24H sampling; for MultiFlow MoA classification: GEF-based call, in at least one S9 condition; for MultiFlow biomarkers with responses: fold-increase over solvent control. As for the experimental part:
Treated cells were gently resuspended and 25 µL/well was mixed thoroughly with the labeling solution. The plate was incubated for 30 min at room temperature shielded from light.
The γH2AX and p53 endpoints were measured based on their median fluorescence intensity (i.e., mean channel fluorescence or MCF) relative to the DMSO solvent control. The p-H3 and polyploidy endpoints were measured based on their frequencies among all events (i.e., all 2n–4n and polyploidy (8n) DNA content). The equations for calculating γH2AX shift, nuclear p53 shift, % polyploidy, and % p-H3 positive events are shown below.
Latex microspheres were used as counting beads to determine nuclear density.
Litron developed Global Evaluation Factors (GEF) to identify a biologically significant increase in select biomarker levels.
A clastogenic or aneugenic call required two successive concentrations that met or exceeded the GEFs in at least 2 of the 4 respective MoA biomarkers. Chemicals that met or exceeded two GEFs in a single non-cytotoxic concentration were designated as “weak” responses. In cases where both clastogen and aneugen biomarkers exceeded the GEF the MoA was considered pan-genotoxic. In cases where less than two biomarkers met the GEFs, the call was non-genotoxic.

Series [4] concerns human lymphoblastoid TK6 cells. Briefly: In vitro MicroFlow assay (flow cytometry-based micronucleus test). Particulars: for MicroFlow summary classification (MN induction): TK6 cells, 4H exposure, 24-h sampling; for MicroFlow %MN response (text): positive: >2.5 fold-increase in %MN and p < 0.05 vs vehicle.
For series [5], the system named is human lymphoblastoid TK6 cells. The series can be described thus: Integrated NAM-based test strategy (TGx-DDI + MicroFlow + MultiFlow; ToxPi integration of BMCs). The settings on record: for ToxPi profile of multiplexed endpoint BMCs: six endpoints: TGx-DDI, MN, 4H/24H p53, 4H/24H ɣH2AX; for Integrated hazard conclusion: from TGx-DDI, MicroFlow and MultiFlow calls.

For series [6], the system named is structural chromosomal aberrations. The settings on record: cited from earlier work; for In vitro mammalian chromosomal aberration test result (OECD 473): SCCS.
Where [7] appears, read: +S9 (rat liver S9), 3 h recovery.

Like-named read-outs stand apart in the source and are kept apart here.

Take `OC[C@@H](O)[C@@H](O)[C@H](O)[C@H](O)CO` [DMANN, D-mannitol, reference compound]: in series [1], the “Effect on cell viability” value is “no decrease in viability”. Besides, the TGx-DDI summary classification result in series [2] (setting [7]) and in series [2] (-S9) was “-” throughout. For the same molecule, in series [2], the “TGx-DDI classification” value is “non-DDI”. Moreover, the “MultiFlow summary classification (call and MoA)” value (shortened to “MultiFlow summary classification”) in series [3] (+S9) and in series [3] (-S9) was “-” in each case. Besides, in series [4] (-S9), the “MicroFlow summary classification (MN induction)” value (“MicroFlow summary classification” below) is given as “-”. Moreover, the “MicroFlow %MN response (text)” value in series [4] was “not observed”.

For `COc1cc([C@@H]2c3cc4c(cc3[C@@H](O[C@@H]3O[C@@H]5CO[C@@H](C)O[C@H]5[C@H](O)[C@H]3O)[C@H]3COC(=O)[C@H]23)OCO4)cc(OC)c1O` [EPEG, Etoposide, reference compound], the TGx-DDI summary classification result in series [2] (-S9) is recorded as “+”. In series [2], the “TGx-DDI BMC potency ranking (bootstrapped median gene BMC)” value was “lowest median gene BMC”. Besides, the “TGx-DDI classification” value in series [2] is listed as “DDI”. Further, the “MultiFlow summary classification” value in series [3] (+S9) and in series [3] (-S9) was “+ C” each time. Also, the “MicroFlow summary classification” value in series [4] (+S9) and in series [4] (-S9) was “+” each time. Further, the “MicroFlow %MN response (text)” value in series [4] is reported as “significant fold-increases in %MN”. Besides, the “ToxPi profile of multiplexed endpoint BMCs” value in series [5] is listed as “most potent for five of the six endpoints examined”.

On to `Cc1ccc(O)c(N)c1` [NSACB 2, 2-amino-4-methylphenol], for which the TGx-DDI summary classification result in series [2] (setting [7]) is “+”. In addition, in series [2], the “Strength / consistency of TGx-DDI response (text)” value (from here on “Strength / consistency”) was “weaker DDI responses” and the “TGx-DDI classification” value is “DDI”. Further, in series [3], the “Strength of MultiFlow biomarker response (text)” value was “most robust increases”; the “MultiFlow MoA classification” value is reported as “clastogens”; the “MultiFlow biomarkers with responses” value is 4H ɣH2AX and 24H p53. Moreover, in series [3] (+S9), the “MultiFlow summary classification” value is “+ C”. Besides, the “MultiFlow summary classification” value in series [3] (-S9) is given as “-”. The “MicroFlow summary classification” value in series [4] (+S9) is given as “+”. The “MicroFlow summary classification” value in series [4] (-S9) is reported as “+”. For the same molecule, the “MicroFlow %MN response (text)” value in series [4] is “variable responses with a significant increase observed only at the highest concentration”. The Integrated hazard conclusion result in series [5] is recorded as “genotoxic in vitro, causing DNA damage via a clastogenic MoA”.

For `Cc1cc(C)n(CO)n1` [NSACB 3, 3,5-dimethylpyrazole-1-methanol], the TGx-DDI summary classification entry in series [2] (setting [7]) was “+”. In series [2], the “Strength / consistency” value is “weaker DDI responses” and the “TGx-DDI classification” value was “DDI”. Further, in series [3], the “Strength of MultiFlow biomarker response (text)” value is “more moderate responses”; the “MultiFlow MoA classification” value is recorded as “clastogens”; the “MultiFlow biomarkers with responses” value was 4H p53 and 4H ɣH2AX. In addition, the “MultiFlow summary classification” value in series [3] (+S9) is recorded as “+ C”. Further, in series [3] (-S9), the “MultiFlow summary classification” value is “+ C”. Moreover, the “MicroFlow summary classification” value in series [4] (+S9) is recorded as “+”. Moreover, the “MicroFlow summary classification” value in series [4] (-S9) is on record as “+”. For the same molecule, in series [4], the “MicroFlow %MN response (text)” value was “variable responses with a significant increase observed only at the highest concentration”. Further, in series [5], the Integrated hazard conclusion entry is reported as “genotoxic in vitro, causing DNA damage via a clastogenic MoA”.

Consider `CCN(CC)c1cccc(O)c1` [NSACB 4, 3-diethylaminophenol], for which the TGx-DDI summary classification result in series [2] (setting [7]) is “+”. Also, in series [2], the “Strength / consistency” value is given as “weaker DDI responses” and the “TGx-DDI classification” value was “DDI”. Further, in series [3] (+S9), the “MultiFlow summary classification” value is on record as “+ C/A”. Besides, the “MultiFlow summary classification” value in series [3] (-S9) was “+ C”. Moreover, in series [3], the “MultiFlow MoA classification” value is “pan-genotoxicant”; the “MultiFlow biomarkers with responses” value was “clastogen biomarkers 4H p53 and 4H ɣH2AX, as well as aneugen marker 4H p-H3 and pan-genotoxic biomarker 24H p53”. Besides, the Integrated hazard conclusion entry in series [5] is “genotoxic in vitro, causing DNA damage via a clastogenic MoA”.

On to `Nc1cccc(N)n1` [NSACB 5, 2,6-diaminopyridine], for which the TGx-DDI summary classification entry in series [2] (setting [7]) is “+”. Further, in series [2], the “TGx-DDI BMC potency ranking (bootstrapped median gene BMC)” value was “greatest median gene BMC”, the “Strength / consistency” value is recorded as “strongest responses” and the “TGx-DDI classification” value is “DDI across all concentrations”. For the same molecule, in series [3] (+S9), the “MultiFlow summary classification” value was “+ C”. Besides, the “MultiFlow summary classification” value in series [3] (-S9) is reported as “+ C”. In series [3], the “MultiFlow MoA classification” value is recorded as “clastogens”; the “MultiFlow biomarkers with responses” value was 4H p53 and 4H ɣH2AX. In addition, the “Strength of MultiFlow biomarker response (text)” value in series [3] (listed as 5) was “most robust increases”. Further, in series [3] (listed as NSACB #5), the “Strength of MultiFlow biomarker response (text)” value was “strong response in clastogen-related biomarkers in both S9 conditions”. Besides, the “MicroFlow summary classification” value in series [4] (+S9) is given as “+”. Further, the “MicroFlow summary classification” value in series [4] (-S9) was “+”. Also, the “MicroFlow %MN response (text)” value in series [4] is reported as “robust fold-increase in %MN with a clear concentration-response relationship”. In series [5], the Integrated hazard conclusion entry is “genotoxic in vitro, causing DNA damage via a clastogenic MoA” and the “ToxPi profile of multiplexed endpoint BMCs” value is “almost no slices protruding from the center”. Moreover, in series [6] (continuous treatment (24H) without S9, ref SCCS, 2013), the “Chromosomal aberration test result” value is “clastogenic”. Also, in series [6] (ref SCCP, 2007, 2013), the “In vitro mammalian chromosomal aberration test result (OECD 473)” value is “positive”. In addition, the “Chromosomal aberration test result” value in series [6] (short-term (6H) treatment with S9, ref SCCS, 2013) is on record as “clastogenic”.

With `COc1cc([N+](=O)[O-])ccc1O` [NSACB 6, 2-methoxy-4-nitrophenol], in series [2] (setting [7]), the TGx-DDI summary classification entry is given as “-”. For the same molecule, the “TGx-DDI classification” value in series [2] was “non-DDI”. In addition, the “MultiFlow summary classification” value in series [3] (+S9) and in series [3] (-S9) was “-” in each case. For the same molecule, the “MultiFlow MoA classification” value in series [3] is given as “non-genotoxic”. Further, the “MultiFlow biomarkers with responses” value in series [3] was “moderate to robust response increase in one of the aneugenic biomarkers (i.e., 4H p-H3)”. For the same molecule, the “MicroFlow summary classification” value in series [4] (+S9) and in series [4] (-S9) was “+” each time. In addition, the “MicroFlow %MN response (text)” value in series [4] is recorded as “robust fold-increase in %MN with a clear concentration-response relationship”. In series [5], the Integrated hazard conclusion entry is on record as “likely irrelevant positives in the MN test”.

Regarding `O=[N+]([O-])c1cc(O)ccc1NCCCO` [NSACB 9, 4-[(3-hydroxypropyl)amino]-3-nitrophenol], the TGx-DDI summary classification entry in series [2] (setting [7]) and in series [2] (-S9) was “+” in each case. Also, the “Strength / consistency” value in series [2] is “moderate DDI response”. Further, the “MultiFlow summary classification” value in series [3] (+S9) and in series [3] (-S9) was “+ C” each time. In addition, the “MultiFlow MoA classification” value in series [3] is reported as “clastogens”. For the same molecule, the “MultiFlow biomarkers with responses” value in series [3] is 4H and 24H ɣH2AX. Moreover, the “Strength of MultiFlow biomarker response (text)” value is “most robust increases” in series [3] (listed as 9); “strong fold-increases in clastogenic biomarkers (i.e., 4H and 24H ɣH2AX) in both S9 conditions” in series [3] (listed as NSACB #9). For the same molecule, the “MicroFlow summary classification” value in series [4] (+S9) and in series [4] (-S9) was “+” each time. In addition, the “MicroFlow %MN response (text)” value in series [4] was “robust fold-increase in %MN with a clear concentration-response relationship”. In addition, in series [5], the Integrated hazard conclusion entry was “genotoxic in vitro, causing DNA damage via a clastogenic MoA”. The “Chromosomal aberration test result” value in series [6] (in the presence of S9, ref SCCP, 2007) was “induced structural chromosomal aberrations”; in series [6] (without S9, ref SCCP, 2007), “equivocal”. In series [6] (ref SCCP, 2007, 2013), the “In vitro mammalian chromosomal aberration test result (OECD 473)” value was “positive”.
